Laboratory results taken from patent US9546150B2, “Substituted quinazolin-4-ones for inhibiting ubiquitin specific protease 7” (HYBRIGENICS SA, priority 2011, dated 2017).

Tests used:
USP8 = target: T1, USP8 (Homo sapiens, UniProt P40818); assay: GST-Ub52-Flag HTRF deubiquitinating enzyme assay, USP8
T1 sequence (P40818 1-1118): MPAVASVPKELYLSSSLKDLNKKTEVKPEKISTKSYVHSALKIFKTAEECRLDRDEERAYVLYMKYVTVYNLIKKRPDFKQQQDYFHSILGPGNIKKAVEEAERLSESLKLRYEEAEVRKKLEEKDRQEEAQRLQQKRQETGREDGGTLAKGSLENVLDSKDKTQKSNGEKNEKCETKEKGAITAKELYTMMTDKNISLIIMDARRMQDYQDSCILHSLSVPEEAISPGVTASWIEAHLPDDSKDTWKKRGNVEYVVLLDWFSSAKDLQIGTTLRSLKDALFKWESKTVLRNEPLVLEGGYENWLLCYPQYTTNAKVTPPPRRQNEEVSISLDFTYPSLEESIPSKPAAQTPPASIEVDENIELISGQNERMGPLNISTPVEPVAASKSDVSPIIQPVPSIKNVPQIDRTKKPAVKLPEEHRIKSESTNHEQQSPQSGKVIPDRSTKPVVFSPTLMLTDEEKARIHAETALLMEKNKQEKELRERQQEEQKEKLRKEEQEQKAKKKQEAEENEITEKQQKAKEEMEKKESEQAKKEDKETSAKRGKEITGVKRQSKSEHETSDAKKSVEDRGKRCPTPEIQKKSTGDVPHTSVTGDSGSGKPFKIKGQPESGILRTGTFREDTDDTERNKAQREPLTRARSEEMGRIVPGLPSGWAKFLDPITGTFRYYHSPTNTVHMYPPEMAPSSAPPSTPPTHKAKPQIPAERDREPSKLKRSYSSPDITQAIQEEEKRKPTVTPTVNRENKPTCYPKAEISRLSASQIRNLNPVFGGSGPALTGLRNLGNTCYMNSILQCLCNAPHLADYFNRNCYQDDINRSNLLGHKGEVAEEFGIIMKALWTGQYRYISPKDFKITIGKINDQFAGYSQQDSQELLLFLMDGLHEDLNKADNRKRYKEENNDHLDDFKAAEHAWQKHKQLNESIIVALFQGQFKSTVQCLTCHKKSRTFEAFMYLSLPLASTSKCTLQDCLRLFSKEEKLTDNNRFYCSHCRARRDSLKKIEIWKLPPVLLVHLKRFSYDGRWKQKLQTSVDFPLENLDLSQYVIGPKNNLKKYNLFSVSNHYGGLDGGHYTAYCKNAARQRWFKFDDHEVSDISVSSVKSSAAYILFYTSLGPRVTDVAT
Description: The cDNA encoding USP8 was obtained by PCR amplification from placenta mRNA. USP8 cDNA was subcloned by PCR into a baculovirus expression vector (pFastBac-HT; Invitrogen). A cDNA encoding a mutated USP8 was generated by mutagenic PCR. […] The sequences were ascertained by sequencing of the entire open reading frame. Bacmids encoding USP8 were generated following DH10bac transposition. The corresponding bacmids were transfected into insect cells (Sf9). Viruses were recovered from culture supernatant and amplified twice. Insect cells (Sf9 or High Five; Invitrogen) were infected for 72 hours. […] Proteins were affinity purified on metal affinity resins (Talon Metal affinity resin; BD Biosciences). Bound materials were extensively washed in wash buffer (50 mM Sodium Phosphate pH 7.0; 300 mM NaCl; 10 mM imidazole; 0.5% Triton X-100; 10% glycerol) and eluted from the resin in 250 mM imidazole-containing wash buffer. Proteins were dialyzed in dialysis buffer (Tris HCl pH 7.6 20 mM; NaCl 200 mM; DTT 1 mM; EDTA 1 mM; 10% Glycerol).
A cDNA encoding the fusion protein between ubiquitin and the ribosomal protein L40 (ub52 or uba52 or ubiquitin-L40) was amplified from human RNA using a proprietary human placenta library. The cDNA was subcloned into a bacterial expression vector (pGEX-2T, GE Healthcare), including an additional flag tag at the carboxyl end of the encoded protein.
For production and purification of recombinant proteins, the plasmid pGEX-2T-Ub52-flag was transformed into E. coli BL21 (Stratagene), grown in LB medium supplemented with 100 mg/ml ampicillin (LB ampi) at 37° C. overnight and then diluted 1/100 in LB ampi. The cells were incubated at 37° C. until an A600=0.6-0.8 was reached. After induction with 0.1 mM isopropyl-β-D-thiogalactopyranoside (IPTG), the culture was incubated at 30° C. for 180 min.
Cells were harvested by centrifugation for 15 min at 7000×g at 4° C. Bacterial pellets were lysed in NETN (Tris HCl pH 8.0; EDTA 1 mM; NP40 0.5%; protease inhibitor cocktail, PMSF 1 mM) and briefly sonicated. Insoluble material was removed by centrifugation 30 min at 14000×g. […] Briefly, soluble fraction was incubated on Glutathione beads pre-equilibrated in NETN buffer+0.5% Milk for 120 min at 4° C. Flow Through was recovered. Beads were extensively washed: the last wash was performed in Tris HCl pH 7.6 20 mM; NaCl 100 mM; MgCl2 12 mM. Elutions were performed using 20 mM Reduced Glutathione in 50 mM Tris HCl pH 8.0, NaCl 120 mM. […] Elutions were dialysed over night at 4° C. in Tris HCl pH 7.6 20 mM; NaCl 50 mM; DTT 0.5 mM.
The use of GST-Ub52-Flag is based on the time-resolved measurement of fluorescence emitted by transfer in homogenous medium.
The assay is carried out on multiwell assay plates. The plates are analyzed on a PHERAstar fluorimeter (BMG) after an overnight incubation at 4° C.
The enzyme reaction is carried out by mixing GST-Ub52-flag solution with 5 μl of USP7 solution (200 pM final) or 5 μl of USP8 (400 pM final). This mixture is incubated for one hour at room temperature on a multiwell assay plate. […] The plate is read after an overnight incubation at 4° C. on a PHERAstar fluorimeter (BMG).
The decrease in the signal correlates with the increase in enzyme activity i.e. the cleavage of GST-Ub52-Flag substrate.
Data (mean values+/−standard deviation) were analyzed as % of control (no compound) and plotted as percentage versus the Log of the compound concentration using GraphPad (Prism).

USP7 = USP7 (Homo sapiens, UniProt Q93009); assay: GST-Ub52-Flag HTRF deubiquitinating enzyme assay, USP7; type: biochemical; set-up: Full-length wild-type human USP7 and its catalytic mutant; His tag (pFastBac-HT vector) (N); made in house; host or cells: Spodoptera frugiperda Sf9 (or High Five) insect cells, baculovirus; conditions: GST-Ub52-Flag substrate, USP7 200 pM
Method: Bacmid DNA was prepared by an alkaline lysis procedure. The integrity of the bacmid minipreps and their orientation were checked by PCR, using generic and specific primers. Sf9 insect cells were cultured in InsectXpress medium (Cambrex) at 27° C. and transfected with the corresponding bacmid, using GeneShuttle 40 (Q-BIOgen). Viruses were recovered in the supernatant 72 h after transfection. Viruses were amplified by infecting insect cells (Sf9 or High Five cells; invitrogen) in 50 ml InsectXpress medium in a 150 cm^2 cell culture flask with 500 μl of the supernatant from transfected Sf9 cells. Following the second round of amplification, infected cells were recovered by rapid SDS lysis, boiled for 5 min at 100° C., sonicated briefly and centrifuged for 20 min at 14,000 g.
Flow Through was recovered.

USP7, sequence (Q93009 whole entry): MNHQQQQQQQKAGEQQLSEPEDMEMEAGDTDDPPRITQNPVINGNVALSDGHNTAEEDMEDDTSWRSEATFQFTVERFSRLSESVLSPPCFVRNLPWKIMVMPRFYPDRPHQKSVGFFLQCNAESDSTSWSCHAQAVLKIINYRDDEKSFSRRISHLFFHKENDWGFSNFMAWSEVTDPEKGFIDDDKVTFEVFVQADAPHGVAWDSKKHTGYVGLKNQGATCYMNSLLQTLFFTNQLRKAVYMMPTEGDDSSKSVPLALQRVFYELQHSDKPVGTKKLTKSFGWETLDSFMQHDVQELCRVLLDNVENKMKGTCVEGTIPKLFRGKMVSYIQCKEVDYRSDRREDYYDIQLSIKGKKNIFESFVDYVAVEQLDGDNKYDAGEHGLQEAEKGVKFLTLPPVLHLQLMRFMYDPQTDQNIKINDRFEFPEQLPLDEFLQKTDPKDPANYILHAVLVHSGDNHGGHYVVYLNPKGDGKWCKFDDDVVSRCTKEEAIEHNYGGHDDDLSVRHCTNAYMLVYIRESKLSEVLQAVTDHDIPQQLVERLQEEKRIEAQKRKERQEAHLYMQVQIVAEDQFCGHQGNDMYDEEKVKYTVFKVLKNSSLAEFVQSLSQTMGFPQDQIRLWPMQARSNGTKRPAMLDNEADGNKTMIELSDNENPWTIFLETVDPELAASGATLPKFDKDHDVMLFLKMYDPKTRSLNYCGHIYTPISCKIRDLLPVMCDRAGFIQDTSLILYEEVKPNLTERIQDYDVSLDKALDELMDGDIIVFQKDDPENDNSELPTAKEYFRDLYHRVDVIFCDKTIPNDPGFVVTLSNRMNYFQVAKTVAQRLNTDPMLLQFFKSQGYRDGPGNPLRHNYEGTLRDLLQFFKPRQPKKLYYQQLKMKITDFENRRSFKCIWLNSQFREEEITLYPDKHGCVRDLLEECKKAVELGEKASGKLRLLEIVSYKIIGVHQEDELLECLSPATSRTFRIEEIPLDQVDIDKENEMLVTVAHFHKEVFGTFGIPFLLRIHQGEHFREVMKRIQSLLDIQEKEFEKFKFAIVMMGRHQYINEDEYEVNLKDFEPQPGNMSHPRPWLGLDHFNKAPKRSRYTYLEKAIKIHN

IC50 (USP8): > 200 µM
IC50 (USP7): 224 µM
SMILES: O=C(COc1cccc(F)c1)N1CCC(O)(Cn2cnc3ccccc3c2=O)CC1 [Example 8, 3-({1-[2-(3-fluorophenoxy)acetyl]-4-hydroxypiperidin-4-yl}methyl)-3,4-dihydroquinazolin-4-one]
